Measurements reported in article PMC6946680, “Modulation of brain cation-Cl^− cotransport via the SPAK kinase inhibitor ZT-1a” (Nature Communications, 2020).
Values joined by “and” are separate entries in the source; they are usually repeats but may differ in a detail not shown here. Identical values can stand only once.

Tests used:
SPAK phosphorylation = assay: Pharmacodynamic study, SPAK phosphorylation in brain of naive mice; assay type: in vivo, mouse; settings: Fig S8a (brain); 50 mg/kg
Procedure: To define ZT-1a efficacy in naive mice in vivo, we examined phosphorylation of SPAK, NKCC1, and NCC in kidney, and phosphorylation of SPAK, NKCC1, and KCC3 in brain, after intraperitoneal (i.p.) administration of either ZT-1a (10, 30, 50, and 100 mg/kg) or Closantel (50 mg/kg as a reference). […]
5. Pharmacodynamic (PD) study
Male C57BL/6j wild-type mice (6 weeks old, Charles River Laboratories Edinburgh UK) were treated with ZT-1a (in DMSO, Sigma) by subcutaneous injection at doses of 0, 3, 10, 30, 50 and 100 mg/kg. 50 mg/kg Closantel was administered as a comparative control. Vehicle control mice were treated with an equal volume of DMSO solution. One hour after administration, mice were sacrificed by cervical dislocation, and kidney and brain tissues were rapidly dissected and snap-frozen in liquid nitrogen. Age- […]
free conditions at the University of Dundee (UK) as described in our recent study1. Animal experiments and breeding were approved by the University of Dundee ethical committee and performed under a […]
Policy on the Care, Welfare and Treatment of Animals, and regulations set by the University of Dundee and the U.K. Home Office. […]
Brain and kidney tissues were collected at 60 min post injection, and proteins subjected to immunoblot were probed with antibodies specific for phosphorylated forms of SPAK,

[1] = tested on: regional cerebral blood flow; assay: Regional cerebral blood flow by laser speckle contrast imaging after tMCAO; assay type: in vivo, mouse; settings: single mice
Procedure: Regional cerebral blood flow was measured using a two-dimensional laser speckle contrast analysis system (PeriCam PSI High Resolution with PIMSoft, Perimed)[65]. Isoflurane-anesthetized mice were head-fixed using stereotaxic equipment during imaging. The skin was retracted to expose the intact skull. Images were taken at 19 frames/second with averaging. Average signal intensity was taken from fixed-size (0.5-mm^2) regions of interest drawn over the parietal bone plate on the ipsi (IL)- and contralateral (CL) sides. Percent perfusion values were taken in comparison with the mean values of the pre-ischemic ipsilateral side. Five consecutive images at each time period per animal were averaged for analysis. […]
cerebral blood flow (rCBF) in ischemic mice. a and d Representative two-dimensional laser speckle contrast images of rCBF. Vehicle (DMSO), ZT-1a (A, 2.5 mg/kg), or Closantel (D, 1.25 mg/kg, i.p.) was administered i.p. at 3 hr and again at 8 hr post-reperfusion after MCAO. Pseudocolor scale bar indicates relative signal intensity. b and e No changes of rCBF were detected in the non-ischemic […]
contralateral (CL) hemispheres of vehicle-control or ZT-1a-treated (b) or Closantel-treated mice (e).
Data are mean ± SD, n = 3. c and f Similar reductions and recoveries of rCBF in the ischemic ipsilateral hemispheres (IL) were detected in the ZT-1a-treated (c) or Closantel-treated ischemic mice (f), and neither differed from vehicle-injected mice. Data are mean ± SEM, n = 3.

KCC3 pThr1048 = assay: Immunoblot of KCC site 2 phosphorylation (KCC3 Thr1048) in HEK-293 cells transfected with FLAG-KCC3; assay type: cell-based, human; settings: single replicates

SMILES: Cc1cc(C(C#N)c2ccc(Cl)cc2)c(Cl)cc1NC(=O)c1cc(I)cc(I)c1O (stereo not shown) [Closantel, reference compound]
- pSer373 / SPAK (SPAK phosphorylation): 0.54 and 0.68 and 0.62 and 0.52
- % CBF ([1]; Fig S10b/S10e, Pre): 100%
- % CBF ([1]; Fig S10b/S10e, Reperfusion 10 min): 84% and 95% and 110%
- % CBF ([1]; Fig S10b/S10e, Reperfusion 20 min): 94% and 89% and 92%
- % CBF ([1]; Fig S10b/S10e, Reperfusion 3 h): 108% and 97% and 120%
- % CBF ([1]; Fig S10b/S10e, Reperfusion 4 h): 105% and 104% and 110%
- % CBF ([1]; Fig S10b/S10e, Reperfusion 24 h): 119% and 83% and 102%
- % CBF ([1]; Fig S10b/S10e, mcao 10 min): 113% and 80% and 120%
- % CBF ([1]; Fig S10b/S10e, mcao 20min): 111% and 75% and 88%
- % CBF ([1]; Fig S10b/S10e, mcao 50 min): 111% and 76% and 90%
- % CBF ([1]; Fig S10c/S10f, Pre): 100%
- % CBF ([1]; Fig S10c/S10f, Reperfusion 10 min): 68% and 56%
- % CBF ([1]; Fig S10c/S10f, Reperfusion 20 min): 65% and 75% and 58%
- % CBF ([1]; Fig S10c/S10f, Reperfusion 3 h): 88% and 84% and 92%
- % CBF ([1]; Fig S10c/S10f, Reperfusion 4 h): 101% and 92% and 90%
- % CBF ([1]; Fig S10c/S10f, Reperfusion 24 h): 120% and 101% and 104%
- % CBF ([1]; Fig S10c/S10f, mcao 10 min): 34% and 30% and 35%
- % CBF ([1]; Fig S10c/S10f, mcao 20min): 37% and 32% and 33%
- % CBF ([1]; Fig S10c/S10f, mcao 50 min): 34% and 33%
- T1007/KCC2 band intensity ratio (KCC3 pThr1048; Hypotonic low Cl, 1 uM): 0.34 and 0.36 and 0.343 and 0.37
- T1007/KCC2 band intensity ratio (KCC3 pThr1048; Hypotonic low Cl, 3 uM): 0.16 and 0.144 and 0.163 and 0.152
- T1007/KCC2 band intensity ratio (KCC3 pThr1048; Hypotonic low Cl, 10 uM): 0.113 and 0.046 and 0.08 and 0.1
- T1007/KCC2 band intensity ratio (KCC3 pThr1048; Isotonic control, 1 uM): 0.358 (2×) and 0.326 and 0.311
- T1007/KCC2 band intensity ratio (KCC3 pThr1048; Isotonic control, 3 uM): 0.141 and 0.106 and 0.123 and 0.134
- T1007/KCC2 band intensity ratio (KCC3 pThr1048; Isotonic control, 10 uM): 0.071 and 0.062 and 0.054 and 0.067
